Test results: ChEMBL document CHEMBL1125973, “Tricyclic quinoxalines as ligands for the strychnine-insensitive glycine site” (Bioorg Med Chem Lett, 1991)

Assays:
[1] = target: Glutamate receptor ionotropic AMPA (Homo sapiens, UniProt P42261+P42262+P42263+P48058); assay: Compound was evaluated for its binding affinity towards Ionotropic glutamate receptor AMPA in presence of [3H]- AMPA; type: protein-complex assay
[2] = target: Glutamate receptor ionotropic, NMDA 1 (Rattus norvegicus, UniProt P35439); assay: Compound was evaluated for its binding affinity towards strychnine - insensitive glycine site of NMDA receptor in presence of [3H]- Gly

Oc1nc2cc(Cl)c(Cl)cc2n2nnnc12
IC50 [1]: > 100 µM | IC50 [2]: 77 µM

Oc1nc2cc(Cl)c(Cl)cc2n2cnnc12
IC50 [1]: 8 µM | IC50 [2]: 7 µM

CCCCn1c(=O)c(=O)[nH]c2cc(Cl)c(Cl)cc21
IC50 [2]: > 100 µM

CCn1c(=O)c(=O)[nH]c2cc(Cl)c(Cl)cc21
IC50 [1]: 21 µM | IC50 [2]: 96 µM

O=c1[nH]c2ccccc2n2nnnc12
IC50 [2]: > 100 µM

Oc1nc2cc(Cl)c(Cl)cc2n2ccnc12
IC50 [1]: 7 µM | IC50 [2]: 6 µM

Cn1c(=O)c(=O)[nH]c2cc(Cl)c(Cl)cc21
IC50 [1]: 36 µM | IC50 [2]: 17 µM

O=c1[nH]c2ccccc2n2ccnc12
IC50 [2]: > 100 µM

Oc1nc2cc(Cl)c(Cl)cc2nc1O [2,3-DIHYDROXY-6,7-DICHLOROQUINOXALINE]
IC50 [1]: 27 µM | IC50 [2]: 4 µM
